Patent publication US6310091A, “Fungicidal saponin, CAY-1, and isolation thereof from Capsium species fruit” (The United States of America as represented by the …, priority 2000, dated 2001)
Where “and” joins values, the source holds several entries; their conditions need not be identical. Equal entries are not always repeated. Where two headings read alike, the source gives them in different places.

What was measured:
[1] = tested on: A549 lung carcinoma cells; assay: Mammalian cytotoxicity, A549 lung carcinoma cells (ATP content); assay type: cell-based; conditions: at concentrations effective against the fungi and yeast
Protocol: 2. A549 lung carcinoma cells. Toxicity of CAY-1 was tested by exposing the cells to CAY-1 for 24, 48, and 72 hrs. Antimycin A was used as a positive control. Viability was assessed by measurement of the ATP content in duplicate wells with luciferin-luciferase monitoring reagent [Cushion et al., Antimicrob. Agents Chemother., 1997, 41:379-384].

[2] = tested on: Aspergillus flavus; assay: Time course study against germinating conidia of A. flavus; assay type: cell-based; conditions: for activity at 2 µM / activity at 3 µM / activity at 4 µM / activity at 5 µM / activity at 7.5 µM / activity at 10 µM: read-out: Percent of Mean Control
Protocol: 1. Filamentous fungi. Filamentous fungi used in bioassays included Aspergillus flavus, A. fumigatus, A. niger, A. parasiticus and Fusarium oxysporum. The fungicidal properties of CAY-1 for the nongerminated and germinating conidia of these fungi were determined separately as described by De Lucca et al. [Med. Mycol., 36:291-298 (1998)] and De Lucca et al. [Antimicrob. Agents Chemother. 43:371-373 (1999)]. […] Two separate experiments were conducted in each medium (n=8 per medium).
A suspension of the aforementioned fungi were prepared separately in the appropriate medium. Conidia (10^4 conidia/ml) were used immediately for the nongerminated conidial assays while conidia (10^5 conidia/ml) were incubated for 7.5 hours at 30° C. to obtain germinating conidia. Serial dilutions of CAY-1 were prepared in the appropriate medium (totaling 225 μl) to which was added 25 μl of the conidial suspensions. The control consisted of 225 μl of medium and 25 μl of the conidial suspension. After mixing, the samples were incubated for 30 min (30° C.). Samples were then spread on potato dextrose agar plates which were incubated at 30° C. for 24 hours. Colonies were then enumerated.
4. Time course study. The effect of time and concentration on the activity of CAY-1 was determined against the germinating conidia of A. flavus in 1% (w/v) PBD. Bioassays were performed twice as described above (n=8).
Statistical analyses. ANOVA analyses on ranks for nonparametric data were performed for the bioassays described in this example.

CC1CCC2(OC1)OC1CC3C4CCC5CC(OC6OC(CO)C(OC7OC(CO)C(O)C(OC8OC(CO)C(O)C(OC9OC(CO)C(O)C(O)C9O)C8O)C7OC7OC(CO)C(O)C(O)C7O)C(O)C6O)C(O)CC5(C)C4CCC3(C)C1C2C (stereo not drawn) [CAY-1]
lethality to mammalian cells [1]: not lethal
Mean No. of Colonies ([2]; 2.5 min, 1% PDB, 2.0 μM): 184.4
Mean No. of Colonies ([2]; 2.5 min, 1% PDB, 3.0 μM): 174.3
Mean No. of Colonies ([2]; 2.5 min, 1% PDB, 4.0 μM): 170.5
Mean No. of Colonies ([2]; 2.5 min, 1% PDB, 5.0 μM): 170.0
Mean No. of Colonies ([2]; 2.5 min, 1% PDB, 7.5 μM): 160.8
Mean No. of Colonies ([2]; 2.5 min, 1% PDB, 10.0 μM): 154.8
Mean No. of Colonies ([2]; 5.0 min, 1% PDB, 2.0 μM): 182.3
Mean No. of Colonies ([2]; 5.0 min, 1% PDB, 3.0 μM): 190.1
Mean No. of Colonies ([2]; 5.0 min, 1% PDB, 4.0 μM): 171.3
Mean No. of Colonies ([2]; 5.0 min, 1% PDB, 5.0 μM): 172.4
Mean No. of Colonies ([2]; 5.0 min, 1% PDB, 7.5 μM): 163.3
Mean No. of Colonies ([2]; 5.0 min, 1% PDB, 10.0 μM): 89.8
Mean No. of Colonies ([2]; 10.0 min, 1% PDB, 2.0 μM): 135.5
Mean No. of Colonies ([2]; 10.0 min, 1% PDB, 3.0 μM): 110.8
Mean No. of Colonies ([2]; 10.0 min, 1% PDB, 4.0 μM): 119.3
Mean No. of Colonies ([2]; 10.0 min, 1% PDB, 5.0 μM): 84.3
Mean No. of Colonies ([2]; 10.0 min, 1% PDB, 7.5 μM): 32.8
Mean No. of Colonies ([2]; 10.0 min, 1% PDB, 10.0 μM): 24.9
Mean No. of Colonies ([2]; 15 min, 1% PDB, 2.0 μM): 126.0
Mean No. of Colonies ([2]; 15 min, 1% PDB, 3.0 μM): 131.9
Mean No. of Colonies ([2]; 15 min, 1% PDB, 4.0 μM): 109.1
Mean No. of Colonies ([2]; 15 min, 1% PDB, 5.0 μM): 77.6
Mean No. of Colonies ([2]; 15 min, 1% PDB, 7.5 μM): 28.1
Mean No. of Colonies ([2]; 15 min, 1% PDB, 10.0 μM): 4.4
Mean No. of Colonies ([2]; 20 min, 1% PDB, 2.0 μM): 227.4
Mean No. of Colonies ([2]; 20 min, 1% PDB, 3.0 μM): 200.0
Mean No. of Colonies ([2]; 20 min, 1% PDB, 4.0 μM): 156.4
Mean No. of Colonies ([2]; 20 min, 1% PDB, 5.0 μM): 95.5
Mean No. of Colonies ([2]; 20 min, 1% PDB, 7.5 μM): 19.8
Mean No. of Colonies ([2]; 20 min, 1% PDB, 10.0 μM): 7.6
Mean No. of Colonies ([2]; 30 min, 1% PDB, 2.0 μM): 139.8
Mean No. of Colonies ([2]; 30 min, 1% PDB, 3.0 μM): 115.4
Mean No. of Colonies ([2]; 30 min, 1% PDB, 4.0 μM): 84.1
Mean No. of Colonies ([2]; 30 min, 1% PDB, 5.0 μM): 54.2
Mean No. of Colonies ([2]; 30 min, 1% PDB, 7.5 μM): 17.1
Mean No. of Colonies ([2]; 30 min, 1% PDB, 10.0 μM): 13.1
activity at 2 µM ([2]; Aspergillus flavus, 2.5 min, 1% PDB, 2.0 μM): 110%
activity at 3 µM ([2]; Aspergillus flavus, 2.5 min, 1% PDB, 3.0 μM): 104%
activity at 4 µM ([2]; Aspergillus flavus, 2.5 min, 1% PDB, 4.0 μM): 102%
activity at 5 µM ([2]; Aspergillus flavus, 2.5 min, 1% PDB, 5.0 μM): 101%
activity at 7.5 µM ([2]; Aspergillus flavus, 2.5 min, 1% PDB, 7.5 μM): 95.8%
activity at 10 µM ([2]; Aspergillus flavus, 2.5 min, 1% PDB, 10.0 μM): 92.3%
minimal effective concentration ([2]; Aspergillus flavus, 5 min, read-out: lowest concentration with significant lethality): 7.5 µM and 9.3 µg/mL
activity at 2 µM ([2]; Aspergillus flavus, 5 min, 1% PDB, 2.0 μM): 89.2%
activity at 3 µM ([2]; Aspergillus flavus, 5 min, 1% PDB, 3.0 μM): 93%
activity at 4 µM ([2]; Aspergillus flavus, 5 min, 1% PDB, 4.0 μM): 83.8%
activity at 5 µM ([2]; Aspergillus flavus, 5 min, 1% PDB, 5.0 μM): 84.3%
activity at 7.5 µM ([2]; Aspergillus flavus, 5 min, 1% PDB, 7.5 μM): 79.9%
activity at 10 µM ([2]; Aspergillus flavus, 5 min, 1% PDB, 10.0 μM): 43.8%
activity at 2 µM ([2]; Aspergillus flavus, 10 min, 1% PDB, 2.0 μM): 102%
activity at 3 µM ([2]; Aspergillus flavus, 10 min, 1% PDB, 3.0 μM): 83.3%
activity at 4 µM ([2]; Aspergillus flavus, 10 min, 1% PDB, 4.0 μM): 89.7%
activity at 5 µM ([2]; Aspergillus flavus, 10 min, 1% PDB, 5.0 μM): 63.4%
activity at 7.5 µM ([2]; Aspergillus flavus, 10 min, 1% PDB, 7.5 μM): 24.7%
activity at 10 µM ([2]; Aspergillus flavus, 10 min, 1% PDB, 10.0 μM): 18.7%
minimal effective concentration ([2]; Aspergillus flavus, 10 min, 10 minutes post-incubation, 1% PDB, p=0.0001, read-out: concentration required for significant activity): 5 µM and 6.2 µg/mL
IC95 ([2]; Aspergillus flavus, 0.25 h, read-out: LD95): 10 µM and 12.4 µg/mL
activity at 2 µM ([2]; Aspergillus flavus, 0.25 h, 15 min, 1% PDB, 2.0 μM): 98.4%
activity at 3 µM ([2]; Aspergillus flavus, 0.25 h, 15 min, 1% PDB, 3.0 μM): 103%
activity at 4 µM ([2]; Aspergillus flavus, 0.25 h, 15 min, 1% PDB, 4.0 μM): 85.2%
activity at 5 µM ([2]; Aspergillus flavus, 0.25 h, 15 min, 1% PDB, 5.0 μM): 60.6%
activity at 7.5 µM ([2]; Aspergillus flavus, 0.25 h, 15 min, 1% PDB, 7.5 μM): 22%
activity at 10 µM ([2]; Aspergillus flavus, 0.25 h, 15 min, 1% PDB, 10.0 μM): 3.4%
activity at 2 µM ([2]; Aspergillus flavus, 20 min, 1% PDB, 2.0 μM): 98.9%
activity at 3 µM ([2]; Aspergillus flavus, 20 min, 1% PDB, 3.0 μM): 87%
